Test results published in patent publication US20030162792A1, “Indole derivatives useful for the treatment of CNS disorders” (H. Lundbeck A/S, priority 2000, published 2003).
Structures can show the parent of a compound that is named as a salt. Where two headings read alike, the source gives them in different places.

Columns and labels:
[1] = target: T1, human cloned dopamine D4.2 receptors expressed in CHO-cells (Homo sapiens, UniProt P21917, DEL265-296); test: Inhibition of the binding of [3H]YM-09151-2 to human dopamine D4.2 receptors; details: for D4-bind. % inhibition of binding: at 50 nM
T1 construct: expressed in transfected cells; host or cells: CHO cells
T1 sequence (P21917 with tags, fused parts or gaps DEL265-296): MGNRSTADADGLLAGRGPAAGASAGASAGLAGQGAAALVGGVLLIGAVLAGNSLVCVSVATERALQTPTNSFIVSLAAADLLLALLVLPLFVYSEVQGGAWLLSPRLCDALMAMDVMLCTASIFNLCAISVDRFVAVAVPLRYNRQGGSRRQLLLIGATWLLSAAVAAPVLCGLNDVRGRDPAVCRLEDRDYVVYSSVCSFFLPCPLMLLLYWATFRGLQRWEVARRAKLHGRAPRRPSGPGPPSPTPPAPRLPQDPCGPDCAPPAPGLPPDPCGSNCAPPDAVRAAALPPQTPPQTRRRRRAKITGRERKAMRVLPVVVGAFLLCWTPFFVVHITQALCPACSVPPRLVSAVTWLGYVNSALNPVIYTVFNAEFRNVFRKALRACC
From the text: Method modified from NEN Life Science Products, Inc., technical data certificate PC2533-10/96.

5-HT2A receptors = target: T2, 5-HT2A receptors (Rattus norvegicus, UniProt P14842); test: Inhibition of the binding of [3H]Ketanserin to 5-HT2A receptors
T2 construct: membranes from rat brain (cortex) in vitro; from tissue; host or cells: rat brain cortex membranes
Experimental: Inhibition of the Binding of [^3H]Ketanserin to 5-HT2A Receptors
The compounds were tested with respect to their affinity for 5-HT2A receptors by determining their ability to inhibit the binding of [^3H]Ketanserin (0.50 nM) to membranes from rat brain (cortex) in vitro. Method described in Sanchez et al. Drug Dev. Res. 1991, 22, 239-250.

D4 receptor = target: T3, D4 receptor (Homo sapiens, UniProt P21917); details: various in vitro efficacy assays; cited from earlier work
T3 sequence (P21917 1-419): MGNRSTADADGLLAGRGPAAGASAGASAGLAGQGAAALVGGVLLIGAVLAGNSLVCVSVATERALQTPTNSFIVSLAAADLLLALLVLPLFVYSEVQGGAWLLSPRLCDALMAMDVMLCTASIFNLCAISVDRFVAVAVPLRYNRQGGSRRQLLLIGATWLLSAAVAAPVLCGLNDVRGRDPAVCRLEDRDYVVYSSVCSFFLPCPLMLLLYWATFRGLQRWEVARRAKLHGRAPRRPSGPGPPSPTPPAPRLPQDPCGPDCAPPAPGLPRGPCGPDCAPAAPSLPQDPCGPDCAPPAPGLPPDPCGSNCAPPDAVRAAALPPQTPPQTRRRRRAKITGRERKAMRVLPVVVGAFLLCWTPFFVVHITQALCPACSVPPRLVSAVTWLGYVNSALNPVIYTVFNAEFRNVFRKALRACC

[2] = [3H]Ketanserin 0.50 nM, membranes from rat brain (cortex), read-out: 5-HT2A-bind. IC50

T2 sequence (P14842 whole entry): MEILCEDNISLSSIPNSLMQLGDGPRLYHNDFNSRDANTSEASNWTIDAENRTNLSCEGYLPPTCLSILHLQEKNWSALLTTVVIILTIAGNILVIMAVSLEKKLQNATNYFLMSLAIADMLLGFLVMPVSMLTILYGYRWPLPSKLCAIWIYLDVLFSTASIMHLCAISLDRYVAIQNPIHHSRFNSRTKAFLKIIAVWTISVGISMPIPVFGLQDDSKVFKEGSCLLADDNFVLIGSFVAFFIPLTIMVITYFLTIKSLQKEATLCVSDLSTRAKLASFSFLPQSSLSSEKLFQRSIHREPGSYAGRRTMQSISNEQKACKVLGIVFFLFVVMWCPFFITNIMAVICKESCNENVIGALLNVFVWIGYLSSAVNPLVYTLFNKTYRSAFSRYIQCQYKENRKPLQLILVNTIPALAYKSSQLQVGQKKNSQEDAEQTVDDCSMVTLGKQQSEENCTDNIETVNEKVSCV

Row | Structure (SMILES) | D4-bind. % inhibition of binding ([1]; [3H]YM-09151-2 0.06 nM) | IC50 (5-HT2A receptors; [2]) | further results
1 | O=S1(=O)c2cccc3cccc(c23)N1CCCN1CCC(c2ccc3[nH]ccc3c2)CC1 [Compound 1d, Hydrochloride] | 83% (50 nM) | 9.2 nM | 
2 | CC(C)Oc1cccnc1N(C)C1CCN(Cc2ccccc2)CC1 [Compound U-101958] |  |  | Functional activity at D4 receptor (literature) (D4 receptor): partial D4 receptor agonists
3 | O=S1(=O)c2cccc3cccc(c23)N1CCCN1CC=C(c2ccc3[nH]ccc3c2)CC1 [Compound 1c, 2-{3-[4-(1H-Indol-5-yl)-3,6-dihydro-2H-pyridin-1-yl]propan-1-yl}-2H-naphtho[1,8-cd]isothiazole 1,1-dioxide, Hydrochloride] |  |  | IC50 [1]: 0.73 nM; IC50 (5-HT2A receptors): 0.48 nM
4 | Cl.O=S1(=O)c2cccc3cccc(c23)N1CCCN1CCN(c2ccc3cc[nH]c3c2)CC1 [Compound 1b, 2-{3-[4-(1H-Indol-6-yl)piperazin-1-yl]propan-1-yl}-2H-naphtho[1,8-cd]isothiazole 1,1-dioxide, Hydrochloride] | 91% (50 nM) | 1.8 nM | 
5 | O=S1(=O)c2cccc3cccc(c23)N1CCCN1CCN(c2ccc3[nH]ccc3c2)CC1 [Compound 1a, 2-{3-[4-(1H-Indol-5-yl)piperazin-1-yl]propan-1-yl}-2H-naphtho[1,8-cd]isothiazole 1,1-dioxide, Hydrochloride] |  | 0.79 nM | IC50 ([1]; [3H]YM-09151-2 0.06 nM, membranes of CHO cells, read-out: D4-bind. IC50): 1.9 nM
